{"source": "patent US12497610B2", "about": "“Functional genomics using CRISPR-CAS systems for saturating mutagenesis of non-coding elements, compositions, methods, libraries and applications thereof” (THE BROAD INSTITUTE, INC., priority 2015, dated 2025)", "key": {"[1]": {"test_system": "CUL3", "test": "ddPCR quantification of CUL3 expression in A375 cells transduced with individual sgRNAs", "format": "cell-based, human", "settings": "A375, relative to non-targeting sgRNAs; result in words", "from_the_text": "Array Validation of Primary Screen Hits\nFor individual (array) validation of noncoding sgRNAs, Applicants first identified sgRNAs enriched in the top 5% of the library as given by the normalized log 2(Vemu/DMSO) read ratio. In order to have high confidence in these sgRNAs, Applicants used the minimum of the two infection replicates for the normalized log2 (Vemu/DMSO) read ratio. […] This ensures that putative noncoding functional elements were supported by the presence of at least 2 enriched sgRNAs. From this group, Applicants picked 25 sgRNAs distributed across different genomic regions for individual validation (see table S2 for a list of sgRNA sequences). Applicants also included 3 exon-targeting and 3 non-targeting sgRNAs to serve as positive and negative controls, respectively.\nFor each sgRNA, standard desalted short oligonucleotides (Integrated DNA Technologies) were annealed, phosphorylated and cloned into a lentiviral vector (lentiCRISPRv2, Addgene 52961) that contained Cas9 and an sgRNA cassette. For each sgRNA, A375 cells were transduced with lentiviral supernatants. After 24 hours, media was replaced with R10 with 1 ug/mL of puromycin. Viral volumes were titered such that 20-40% of cells survived after puromycin selection. After selection and expansion for 7 days in puromycin, cell were plated for DNA/RNA extraction, vemurafenib resistance, or ChIP assays.\nRNA Extraction and ddPCR Quantification of CUL3 Expression\nAfter 7 days of puromycin selection, A375 cells transduced with individual lentiCRISPRv2 sgRNAs were plated in 3 replicate wells (2×10^3 cells/well) in 96-well plates. After 4 days (70-90% confluent), RNA was extracted using a homemade version of a rapid lysis kit for quantitative PCR (similar to commercial “Cells-to-Ct”-style kits). This procedure (detailed below) enables rapid RNA extraction and qPCR/ddPCR readout from 96-well plates with minimal hands-on time.\nCells were first washed in 100 ul of chilled phosphate-buffered saline (PBS). Then, cells were incubated at room temperature for 8 minutes in 50 ul of Complete Lysis Buffer. The Complete Lysis Buffer consists of the Base Lysis Buffer with freshly added 100 ug/ml Proteinase K (Sigma P2308) and 300 U/mL DNase I (Sigma D2821). When adding DNase I, it is important to not vortex but mix only by gentle pipetting. The Base Lysis Buffer is made in RNAse-free water (ThermoFisher Scientific 10977015) with 10 mM Tris pH8 (Ambion AM9856), 0.5 mM MgCl2 (Sigma M1028), 0.44 mM CaCl2 (Sigma 21115), 10 uM DTT (Sigma 43816), 0.1% Triton X-114 (Calbiochem 648468), and 1.73 mN HCl (Sigma 318965) and should have a final pH of 7.8. The Base Lysis Buffer is stable at 4° C. for up to 6 months.\nAfter the 8-minute incubation in Complete Lysis Buffer, 30 ul of the cell lysis was added to new PCR plates containing 3 ul of STOP buffer in each well to stop the lysis reaction. The STOP buffer is made in RNAse-free water with 1 mM Proteinase K inhibitor AAPF N-(Methoxysuccinyl)-Ala-Ala-Pro-Phe-chloromethyl ketone (SEQ ID NO: 174) (Millipore 539470), 90 mM EDTA (ThermoFisher Scientific 15575020), and 113 uM DTT (Sigma 43816). The final pH of the STOP buffer should be 8, adjusted appropriately with HCl and KOH. The STOP buffer is stable for up to 6 months at 20° C. The lysis reaction was mixed with the STOP buffer by pipetting up and down 5 times. Applicants then incubated the lysis and STOP buffer for at least 2 minutes but not more than 20 minutes. (Extra stopped lysis can be stored at −80° C. for up to 5 months.)\nApplicants transferred 5 ul of the stopped lysis to new PCR plates with 20 ul of RT master mix. The RT master mix is from the RevertAid Reverse Transcriptase kit (ThermoFisher Scientific K1691) and is as described in the manufacturer's protocol but with an added oligo-dT primer. […]"}, "[2]": {"test_system": "YY1", "test": "ChIP-ddPCR for YY1", "format": "cell-based, human", "settings": "ChIP-ddPCR around cut site vs non-targeting sgRNA", "protocol": "Chromatin Immunoprecipitation (ChIP) for Histone Modifications and Transcription Factors\nAfter 7 days of puromycin selection, A375 cells transduced with individual lentiCRISPRv2 sgRNAs were plated in T-225 flasks and grown to 70-90% confluence (6 days). At this point, chromatin fixation was initiated by adding formaldehyde directly to the growth media (final concentration 1%) and incubating at 37° C. for 10 minutes. The entire two-day ChIP procedure was performed using the Magna ChIP HiSens Chromatin Immunoprecipitation Kit (Millipore 1710460), as specified in the manufacturer's protocol. […]\nUsing BatchPrimer3, Applicants designed primers centered on the sgRNA target site with a target amplicon size of 80-120 bp (see table S4 for ChIP-ddPCR primers). Droplet digital PCR (ddPCR) reactions using EvaGreen (BioRad 1864034) were used to quantify changes between input, histone/TF ChIP, and IgG ChIP samples for A375 cells transduced with specific sgRNAs and untransduced A375 cells. […] Applicants calculated the percent change in ChIP signal after genome editing by normalizing each ChIP sample to its corresponding input sample and then comparing the normalized ChIP between A375s transduced with specific sgRNAs and untransduced (control) A375 cells."}, "[3]": {"test_system": "human BCL11A erythroid enhancer", "test": "Tiled pooled CRISPR-Cas9 screen for in situ functional mapping of the human BCL11A erythroid enhancer (HbF-high/HbF-low sort, sgRNA deep sequencing)", "format": "cell-based", "settings": "for Enrichment Score: HbF enrichment, human library NGG and NGG RC sgRNAs filtered for enrichment score >0.259; for Dropout Score: human library sgRNAs that produced HbF enrichment over 0.259", "method_in_brief": "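HUDEP-2 cells stably expressing Cas9 transduced at low multiplicity with tiled sgRNA library covering +55/+58/+62 DHS, selected with blasticidin/puromycin, expanded one week then differentiated one week. Top and bottom 10% HbF-stained cells FACS-sorted; sgRNA representation determined by deep sequencing of genomic DNA.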"}}}
{"substance": "5′-UTR sg1: validation sgRNA AGGAGGAGGAGGACGACGTT, SEQ ID NO 457, 5′ UTR (expressed or natural sequence)", "values": [{"measurement": "CUL3 expression", "setting": "[1]", "result": "significantly decrease"}, {"measurement": "decrease of YY1 binding", "setting": "[2]", "result": 26, "unit": "%"}]}
{"substance": "BCL_01989_H_exon2 (guide CTGCTATGTGTTCCTGTTTGNGGRC; listed as DNA, chemistry not given here)", "values": [{"measurement": "Enrichment Score", "setting": "[3]", "result": 0.6201}, {"measurement": "Dropout Score", "setting": "[3]", "result": 0.0332}]}
{"substance": "BCL_01990_H_exon2 (guide GATAAACAATCGTCATCCTCNGGRC; listed as DNA, chemistry not given here)", "values": [{"measurement": "Enrichment Score", "setting": "[3]", "result": 0.8422}, {"measurement": "Dropout Score", "setting": "[3]", "result": "−0.6128"}]}
{"substance": "BCL_01991_H_exon2 (guide CGTCATCCTCTGGCGTGACCNGGRC; listed as DNA, chemistry not given here)", "values": [{"measurement": "Enrichment Score", "setting": "[3]", "result": 0.8523}, {"measurement": "Dropout Score", "setting": "[3]", "result": "−0.7166"}]}
{"substance": "BCL_01992_H_exon2 (guide GACCTGGATGCCAACCTCCANGGRC; listed as DNA, chemistry not given here)", "values": [{"measurement": "Enrichment Score", "setting": "[3]", "result": 1.234}, {"measurement": "Dropout Score", "setting": "[3]", "result": "−0.6955"}]}
{"substance": "BCL_01993_H_exon2 (guide ACCTGGATGCCAACCTCCACNGGRC; listed as DNA, chemistry not given here)", "values": [{"measurement": "Enrichment Score", "setting": "[3]", "result": 1.974}, {"measurement": "Dropout Score", "setting": "[3]", "result": "−1.736"}]}
{"substance": "BCL_01994_H_exon2 (guide GATGCCAACCTCCACGGGATNGGRC; listed as DNA, chemistry not given here)", "values": [{"measurement": "Enrichment Score", "setting": "[3]", "result": 1.11}, {"measurement": "Dropout Score", "setting": "[3]", "result": "−0.9904"}]}
{"substance": "BCL_01998_H_exon2 (guide TTTCATCTCGATTGGTGAAGNGGRC; listed as DNA, chemistry not given here)", "values": [{"measurement": "Enrichment Score", "setting": "[3]", "result": 0.3489}, {"measurement": "Dropout Score", "setting": "[3]", "result": "−0.1426"}]}
{"substance": "BCL_01999_H_exon2 (guide ATCTCGATTGGTGAAGGGGANGGRC; listed as DNA, chemistry not given here)", "values": [{"measurement": "Enrichment Score", "setting": "[3]", "result": 0.6204}, {"measurement": "Dropout Score", "setting": "[3]", "result": "−0.7601"}]}
{"substance": "BCL_02000_H_exon2 (guide TCGATTGGTGAAGGGGAAGGNGGRC; listed as DNA, chemistry not given here)", "values": [{"measurement": "Enrichment Score", "setting": "[3]", "result": 0.4624}, {"measurement": "Dropout Score", "setting": "[3]", "result": "−1.365"}]}
{"substance": "BCL_02001_H_exon2 (guide CCACAGCTTTTTCTAAGCAGNGGRC; listed as DNA, chemistry not given here)", "values": [{"measurement": "Enrichment Score", "setting": "[3]", "result": 0.4913}, {"measurement": "Dropout Score", "setting": "[3]", "result": "−0.2495"}]}
{"substance": "BCL_02002_H_exon2 (guide AAAATAAGAATGTCCCCCAANGGRC; listed as DNA, chemistry not given here)", "values": [{"measurement": "Enrichment Score", "setting": "[3]", "result": 0.505}, {"measurement": "Dropout Score", "setting": "[3]", "result": "−0.4259"}]}
{"substance": "BCL_02003_H_exon2 (guide AAATAAGAATGTCCCCCAATNGGRC; listed as DNA, chemistry not given here)", "values": [{"measurement": "Enrichment Score", "setting": "[3]", "result": 1.085}, {"measurement": "Dropout Score", "setting": "[3]", "result": "−0.09695"}]}
{"substance": "BCL_02004_H_exon2 (guide CCCCCAATGGGAAGTTCATCNGGRC; listed as DNA, chemistry not given here)", "values": [{"measurement": "Enrichment Score", "setting": "[3]", "result": 0.4685}, {"measurement": "Dropout Score", "setting": "[3]", "result": "−0.1189"}]}
{"substance": "BCL_02005_H_exon2 (guide GTTCATCTGGCACTGCCCACNGGRC; listed as DNA, chemistry not given here)", "values": [{"measurement": "Enrichment Score", "setting": "[3]", "result": 3.202}, {"measurement": "Dropout Score", "setting": "[3]", "result": "−1.837"}]}
{"substance": "BCL_02006_H_exon2 (guide TCTGGCACTGCCCACAGGTGNGGRC; listed as DNA, chemistry not given here)", "values": [{"measurement": "Enrichment Score", "setting": "[3]", "result": 1.489}, {"measurement": "Dropout Score", "setting": "[3]", "result": "−2.029"}]}
{"substance": "BCL_02007_H_exon2 (guide GGCACTGCCCACAGGTGAGGNGGRC; listed as DNA, chemistry not given here)", "values": [{"measurement": "Enrichment Score", "setting": "[3]", "result": 3.351}, {"measurement": "Dropout Score", "setting": "[3]", "result": "−1.662"}]}
{"substance": "BCL_02008_H_exon2 (guide AGGAGGTCATGATCCCCTTCNGGRC; listed as DNA, chemistry not given here)", "values": [{"measurement": "Enrichment Score", "setting": "[3]", "result": 0.3495}, {"measurement": "Dropout Score", "setting": "[3]", "result": "−0.4482"}]}
{"substance": "BCL_02009_H_exon2 (guide TCCCCTTCTGGAGCTCCCAANGGRC; listed as DNA, chemistry not given here)", "values": [{"measurement": "Enrichment Score", "setting": "[3]", "result": 2.108}, {"measurement": "Dropout Score", "setting": "[3]", "result": "−1.693"}]}
{"substance": "BCL_02010_H_exon2 (guide CCCCTTCTGGAGCTCCCAACNGGRC; listed as DNA, chemistry not given here)", "values": [{"measurement": "Enrichment Score", "setting": "[3]", "result": 0.5003}, {"measurement": "Dropout Score", "setting": "[3]", "result": "−0.1463"}]}
{"substance": "BCL_02011_H_exon2 (guide CTGGAGCTCCCAACGGGCCGNGGRC; listed as DNA, chemistry not given here)", "values": [{"measurement": "Enrichment Score", "setting": "[3]", "result": 0.6044}, {"measurement": "Dropout Score", "setting": "[3]", "result": 0.7912}]}
{"substance": "BCL_02014_H_exon2 (guide TCTGTAAGAATGGCTTCAAGNGGRC; listed as DNA, chemistry not given here)", "values": [{"measurement": "Enrichment Score", "setting": "[3]", "result": 0.9901}, {"measurement": "Dropout Score", "setting": "[3]", "result": "−0.7711"}]}
{"substance": "BCL_02015_H_exon2 (guide AAGAATGGCTTCAAGAGGCT; chemistry not given here)", "values": [{"measurement": "Enrichment Score", "setting": "[3]", "result": 1.064}, {"measurement": "Dropout Score", "setting": "[3]", "result": "−1.349"}]}
